Measured values reported in paper PMC6382835, “A critical evaluation of TRPA1-mediated locomotor behavior in zebrafish as a screening tool for novel anti-nociceptive drug discovery” (Scientific Reports, 2019).

Assays:
mouse TRPA1 (mTRPA1) = biological target: T1, mouse TRPA1 (mTRPA1) (Mus musculus, UniProt Q8BLA8); test: FLIPR calcium signaling assay in mTRPA1-transfected HEK293 cells; assay type: cell-based; conditions: for EC50: read-out: EC50 (potency in µM)
T1 construct: host or cells: HEK293 (ATCC CRL-1573), transient transfection
T1 sequence (Q8BLA8 whole entry): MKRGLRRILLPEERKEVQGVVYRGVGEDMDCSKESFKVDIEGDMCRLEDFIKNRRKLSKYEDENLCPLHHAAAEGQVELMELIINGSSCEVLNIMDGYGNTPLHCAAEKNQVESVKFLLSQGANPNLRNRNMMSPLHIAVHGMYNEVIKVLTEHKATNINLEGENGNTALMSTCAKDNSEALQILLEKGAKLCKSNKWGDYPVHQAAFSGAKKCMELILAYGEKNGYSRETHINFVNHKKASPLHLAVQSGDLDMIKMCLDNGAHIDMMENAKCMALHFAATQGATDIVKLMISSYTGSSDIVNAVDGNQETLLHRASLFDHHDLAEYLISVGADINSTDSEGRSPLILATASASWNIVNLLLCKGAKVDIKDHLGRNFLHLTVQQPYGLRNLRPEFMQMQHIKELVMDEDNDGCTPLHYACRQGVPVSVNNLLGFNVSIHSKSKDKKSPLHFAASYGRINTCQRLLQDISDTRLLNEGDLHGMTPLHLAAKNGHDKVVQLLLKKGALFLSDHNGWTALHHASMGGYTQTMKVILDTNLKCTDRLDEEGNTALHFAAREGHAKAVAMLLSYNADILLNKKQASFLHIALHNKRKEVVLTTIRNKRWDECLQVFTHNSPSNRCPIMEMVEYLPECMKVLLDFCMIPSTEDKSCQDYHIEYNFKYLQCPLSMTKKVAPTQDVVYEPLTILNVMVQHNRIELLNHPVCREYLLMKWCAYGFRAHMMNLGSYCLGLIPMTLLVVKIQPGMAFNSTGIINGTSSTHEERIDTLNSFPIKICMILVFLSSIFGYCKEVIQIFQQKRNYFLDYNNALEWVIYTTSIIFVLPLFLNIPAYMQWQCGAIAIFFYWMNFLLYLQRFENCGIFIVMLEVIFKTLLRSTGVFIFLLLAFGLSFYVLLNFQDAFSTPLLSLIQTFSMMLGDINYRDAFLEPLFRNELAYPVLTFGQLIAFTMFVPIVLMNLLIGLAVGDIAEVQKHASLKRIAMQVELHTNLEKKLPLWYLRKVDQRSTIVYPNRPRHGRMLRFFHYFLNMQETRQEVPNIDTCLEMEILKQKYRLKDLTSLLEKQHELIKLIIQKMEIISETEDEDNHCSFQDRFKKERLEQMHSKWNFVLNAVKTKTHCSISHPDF
Experimental: HEK293 cells (#CRL-1573, ATCC, VA, USA) were cultured in DMEM media (#11995-065, Sigma-Aldrich, MO, USA) with 10% Fetal Bovine Serum (#F0926-500ML, Thermo Fisher, MA, USA). The cells were maintained in a 37 °C incubator with consistent 5% CO2. They were seeded in a clear 6 well flat bottom cell culture plates (#07-200-83, Corning ®, Thermo Fisher) with 500,000 cells/2 ml/well for transfection, in serum-free Opti-MEM (#31985070, Gibco®, Thermo Fisher). These cells were transfected with pcDNA3.1-mTRPA1 (#MR227099, OriGene, MD, USA), pcDNA3.1-zTRPA1a, or pcDNA3.1-zTRPA1b (a gift from Dr. David Prober) using X-tremeGENE^TM 9 (#6365809001, Sigma-Aldrich). After 24 hours, the transfected cells were dislodged with trypsin, resuspended in Opti-MEM, and seeded 25,000 cells/25 µl/well in 384-well black polystyrene microplates (#82051-296, VWR, PA, USA) for testing calcium signaling the following day. Experiments were carried out with the approval of the Institutional Biohazard Committee (#13-013-16).
Twenty-five µl calcium sensitive Fluorescent Imaging Plate Reader (FLIPR) Calcium 6 assay dye (#R8190, Molecular Devices, CA, USA) was added to each well of a 384-well plate containing HEK293 cells transiently expressing mTRPA1, zTRPA1a, and zTRPA1b, respectively. The cells were incubated for an hour prior to the recording of intracellular calcium levels in a FlexStation3 Multi-Mode Microplate Reader (#R8190, Molecular Devices) as previously described. All compounds were diluted in calcium buffer made with 1x HBSS (#14025-092, Thermo Fisher), 20 mM HEPES (#15630-080, Thermo Fisher), and 2.5 mM Probenecid (#P8761, Sigma-Aldrich). For agonist studies, ASP7663 (#5178, Tocris, Bristol, UK) was diluted in 1% DMSO-containing calcium buffer at desired concentrations and was added during the recording. The TRPA1 antagonists HC-030031 (#2896, Tocris), TCS-5861528 (#3938, Tocris), and A-967079 (#4716, Tocris) were diluted in calcium buffer, and 5 µl of 10x solutions were added 10 minutes prior to the recording. The same amount of DMSO (1%) was added to all control groups to maintain similar DMSO levels with the experimental groups. During the assay, the cells were challenged by a 5x ASP7663 solution or 1% DMSO solution at the 20 seconds time point, and both solutions were diluted in calcium buffer. Relative fluorescence units (RFU) were measured for 120 seconds period by the Flexstation. Area under the curve (AUC) was further evaluated from individual calcium influx data (Supplemental Figs 2 and 4) to plot does-response curve of antagonists. For each specific antagonist concentration we plotted Log(dose ratio-1) against the antagonist concentration in a Schild plot. The dose ratio (A’/A) equals the EC50 of the agonist ([…]) in the presence of a concentration of the antagonist (A’) divided by the EC50 of the agonist in the absence of antagonist (A). The x-intercept of the Schild plot was used to identify the antagonist-receptor affinity (pA2).
All data are presented as means ± standard error of the mean (SEM). For our in vitro statistical analysis, AUC of calcium influx (RFU) was measured to plot dose-response curves, which were further analyzed by nonlinear regression analysis. Mean RFU of the first 10 seconds was used as a baseline of the AUC. EC50 values of the dose-response curves were further used to plot Schild curves, and the curves were analyzed with linear regression analysis. For the mice von Frey test, mechanical thresholds were analyzed with two-way ANOVA followed by a Bonferonni test for multiple comparison analysis. For the zebrafish behavior test, the data from the first five seconds following drug administration were excluded, as zebrafish displacement during that period was highly influenced by liquid dispensing. AUC of all curves were measured and analyzed by one-way ANOVA. The post-hoc analysis was conducted with the Tukey’s or Dunnett’s multiple comparisons unless it stated otherwise. […]

5 dpf zebrafish larvae = test: Zebrafish locomotor tracking assay; assay type: in vivo, Zebrafish (Danio rerio); conditions: for swimming (locomotor) behavior: 100 μM agonist, 5 dpf larvae, 300 s tracking
Experimental: Wild-type zebrafish of the AB line were utilized for all behavioral experiments. Adult and larval zebrafish were maintained on a 14 hr/10 hr light/dark cycle. They were maintained and bred using standard procedure https://zfin.org/zf_info/zfbook/zfbk.html. Larval zebrafish were reared until 5 days post-fertilization (dpf) in E3 media https://zfin.org/zf_info/zfbook/chapt1/1.3.html in an incubator at 28 °C. E3 media was changed daily, and healthy embryos were kept for experiments.
In the behavioral experiments, one 5 dpf zebrafish was placed in 250 μL of fish media per well of a 96-well plate (UNIPLATE Collection and Analysis Microplate, 96-Well 7701-1651). For each experimental condition, a group of 8 larvae (1 column) was used. Larvae were acclimated to the wells for 300 seconds after which an 8-channel pipette was used to simultaneously dispense 250 μL of 2x concentration of the TRPA1 agonist ASP7663 in fish media into each well. Locomotor activity was subsequently tracked and quantified (as distance travelled) for 300 additional seconds utilizing the Zebrabox system from ViewPoint Behavior Technology (Civrieux, France). For TRPA1 antagonist testing, larvae in the 96-well plate were pretreated with 1x concentration of antagonist in 250 μL E3 media for 20 minutes. Then, 250 μL of 2x TRPA1 agonist was added directly to this solution, and the resulting behavior was recorded as described above.
All data are presented as means ± standard error of the mean (SEM). For our in vitro statistical analysis, AUC of calcium influx (RFU) was measured to plot dose-response curves, which were further analyzed by nonlinear regression analysis. Mean RFU of the first 10 seconds was used as a baseline of the AUC. EC50 values of the dose-response curves were further used to plot Schild curves, and the curves were analyzed with linear regression analysis. For the mice von Frey test, mechanical thresholds were analyzed with two-way ANOVA followed by a Bonferonni test for multiple comparison analysis. For the zebrafish behavior test, the data from the first five seconds following drug administration were excluded, as zebrafish displacement during that period was highly influenced by liquid dispensing. AUC of all curves were measured and analyzed by one-way ANOVA. The post-hoc analysis was conducted with the Tukey’s or Dunnett’s multiple comparisons unless it stated otherwise. A value of y = 0 in the graph was used as a baseline of the AUC. For our time-course average displacement graph, we used 2nd degree polynomial smoothing for a better representation; however, we used data before smoothing for all statistical analysis and quantification. All in vitro and in vivo data were evaluated using GraphPad Prism 7 (GraphPad Software, La Jolla, CA) unless it stated otherwise.

[1] = agonist calcium influx, AUC of RFU, mTRPA1-transfected HEK293
[2] = Schild plot against ASP7663-induced calcium influx, mTRPA1

## C=CCN=C=S [AITC, allyl isothiocyanate]
Mouse TRPA1 (mTRPA1); [1]
  EC50: 5.8 µM
5 dpf zebrafish larvae
  swimming (locomotor) behavior: elicited an acute and rapid swimming behavior immediately upon treatment

## CC(C)CN1C(=O)/C(=C/C(=O)O)c2cccc(F)c21 [ASP7663]
Mouse TRPA1 (mTRPA1); 316 µM, up to 120 seconds, compared to AITC
  persistence of calcium influx: more persistent calcium influx compared to AITC
Mouse TRPA1 (mTRPA1); [1]
  pEC50: 5.16 ± 0.16
  EC50: 6.8 µM
Mouse TRPA1 (mTRPA1); versus similar FLIPR-based calcium assay
  potency weaker than previously reported (fold): ~ 10 fold
5 dpf zebrafish larvae
  swimming (locomotor) behavior: induced a slower and more sustained swimming behavior
5 dpf zebrafish larvae; ASP7663 higher concentration 31.6 and 100 μM
  locomotor activity: hyperlocomotor activity
5 dpf zebrafish larvae; ASP7663 low doses 3.16 and 10 μM
  locomotor activity: induced hypolocomotion

## CC(C)c1ccc(NC(=O)Cn2cnc3c2c(=O)n(C)c(=O)n3C)cc1 [HC-030031]
Mouse TRPA1 (mTRPA1); [2]
  pA2: 5.65 ± 0.2
  pA2 expressed in µM: 2.2 µM
5 dpf zebrafish larvae; 10 μM HC-030031 alone vs E3
  swimming behavior with antagonist alone: increased swimming behavior over baseline
5 dpf zebrafish larvae; 10 μM antagonist pre-incubation 20 minutes
  inhibition of ASP7663 (100 μM)-mediated nocifensive locomotor behavior: inhibited the nocifensive locomotor behavior
